In patent US20240270821A1, “GIP/GLP1/GCG TRI-RECEPTOR AGONISTS AND USES THEREOF” (priority 2023, published 2024):
Where two headings read alike, the source gives them in different places. Starred links: 1 amine or outer side, 2 acyl side, 3 side chain; linkers in the order of their positions; H or OH if unused. Non-standard residues stand in square brackets, D forms with d. Residues, ends and D or L forms follow the SMILES beside them. Groups on a side chain read outwards from the residue. *: point of attachment. C18 diacid = O=C(O)CCCCCCCCCCCCCCCCC(=O)*; αMePhe(2-F) = C[C@](N)(Cc1ccccc1F)C(=O)O; γGlu = O=C(O)[C@H](CCC(=O)[*:2])N[*:1]; αMe4Pal = C[C@](N)(Cc1ccncc1)C(=O)O; αMeY = C[C@](N)(Cc1ccc(O)cc1)C(=O)O; αMeF = C[C@](N)(Cc1ccccc1)C(=O)O; 4Pal = N[C@@H](Cc1ccncc1)C(=O)O; αMeL = CC(C)C[C@](C)(N)C(=O)O; αMeS = C[C@](N)(CO)C(=O)O; Orn = NCCC[C@H](N)C(=O)O; AEEA = NCCOCCOCC(=O)O; Aib = CC(C)(N)C(=O)O

Legend:
Type in all cases: cell-based
hGIPR [1] = target: T1, hGIPR (Homo sapiens, UniProt P48546); test: Functional cAMP activity in the presence of 1% HSA
T1 sequence (P48546 22-466): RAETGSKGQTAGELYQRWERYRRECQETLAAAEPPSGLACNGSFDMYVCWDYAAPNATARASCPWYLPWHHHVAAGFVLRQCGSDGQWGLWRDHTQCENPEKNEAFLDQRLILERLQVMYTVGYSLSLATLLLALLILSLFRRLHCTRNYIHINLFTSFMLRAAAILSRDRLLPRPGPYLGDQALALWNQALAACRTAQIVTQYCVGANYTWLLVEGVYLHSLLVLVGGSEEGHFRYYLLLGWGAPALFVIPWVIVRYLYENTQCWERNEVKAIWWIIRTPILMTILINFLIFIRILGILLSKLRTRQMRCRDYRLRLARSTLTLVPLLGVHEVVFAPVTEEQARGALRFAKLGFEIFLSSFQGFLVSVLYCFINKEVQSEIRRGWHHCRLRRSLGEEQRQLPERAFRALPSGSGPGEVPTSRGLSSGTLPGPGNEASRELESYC

hGLP-1R [2] = target: T2, hGLP-1R (Homo sapiens, UniProt P43220); test: Functional cAMP activity in the presence of 1% HSA
human GcgR = human GcgR (Homo sapiens, UniProt P47871); test: Functional cAMP activity in the presence of 1% HSA
hGIPR [3] = target: T1, hGIPR; test: Functional cAMP activation in the presence of 0.1% casein (no HSA);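 on Relative cAMP EC50, hGIPR: intracellular cAMP rise after 30 min at 37 °C read by HTRF against a standard curve, scaled between buffer alone (0%) and top control ligand concentration (100%), four-parameter fit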;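 on Relative cAMP EC50, hGLP-1R: intracellular cAMP rise after 30 min at 37 °C read by HTRF, normalized between buffer only (0%) and maximal control ligand (100%), four-parameter variable-slope fit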;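 on Relative cAMP EC50, hGcgR: intracellular cAMP rise after 30 min at 37 °C, read by HTRF against a cAMP standard curve, scaled from buffer only (0%) to maximal control ligand response (100%)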
hGLP-1R [4] = target: T2, hGLP-1R; test: as above
hGcgR = hGcgR (Homo sapiens, UniProt P47871); test: as above;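 further: intracellular cAMP rise after 30 min at 37 °C, read by HTRF against a cAMP standard curve, scaled from buffer only (0%) to maximal control ligand response (100%)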
[5] = read-out: cAMP Rel EC50, hGLP-1R
[6] = read-out: Relative cAMP EC50, hGIPR
[7] = read-out: Relative cAMP EC50, hGLP-1R
[8] = read-out: Relative cAMP EC50, hGcgR
[9] = in the presence of 0.1% casein (no HSA), geometric mean, read-out: Relative cAMP EC50, hGIPR
[10] = in the presence of 0.1% casein (no HSA), geometric mean, read-out: Relative cAMP EC50, hGLP-1R
[11] = in the presence of 0.1% casein (no HSA), geometric mean, read-out: Relative cAMP EC50, hGcgR

Chain of hGcgR (P47871 26-477): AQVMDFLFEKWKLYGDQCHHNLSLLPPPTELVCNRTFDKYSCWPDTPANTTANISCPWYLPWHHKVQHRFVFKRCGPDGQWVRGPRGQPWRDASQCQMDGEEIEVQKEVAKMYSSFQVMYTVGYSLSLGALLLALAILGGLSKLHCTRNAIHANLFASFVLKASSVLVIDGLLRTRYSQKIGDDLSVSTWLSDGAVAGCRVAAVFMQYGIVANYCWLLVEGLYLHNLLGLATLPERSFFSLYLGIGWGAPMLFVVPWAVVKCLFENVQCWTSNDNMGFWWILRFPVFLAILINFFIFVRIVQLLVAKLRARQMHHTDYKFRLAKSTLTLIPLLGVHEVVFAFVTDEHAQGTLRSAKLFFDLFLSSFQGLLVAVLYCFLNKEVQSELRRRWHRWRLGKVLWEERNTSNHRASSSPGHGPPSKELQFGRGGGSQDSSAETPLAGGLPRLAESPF
Chain of human GcgR (P47871 26-477): as above
T2 sequence (P43220 24-463): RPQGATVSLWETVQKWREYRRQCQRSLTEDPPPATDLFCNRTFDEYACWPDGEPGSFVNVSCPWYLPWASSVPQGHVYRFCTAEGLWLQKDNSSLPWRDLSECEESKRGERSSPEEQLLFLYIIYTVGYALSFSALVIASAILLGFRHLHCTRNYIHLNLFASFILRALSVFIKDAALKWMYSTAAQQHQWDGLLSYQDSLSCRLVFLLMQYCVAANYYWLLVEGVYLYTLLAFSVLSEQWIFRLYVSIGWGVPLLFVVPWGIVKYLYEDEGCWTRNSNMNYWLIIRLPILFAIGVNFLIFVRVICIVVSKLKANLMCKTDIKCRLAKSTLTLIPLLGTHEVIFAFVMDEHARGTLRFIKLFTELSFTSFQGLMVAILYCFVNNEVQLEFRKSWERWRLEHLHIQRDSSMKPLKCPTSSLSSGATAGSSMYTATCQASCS

Row | Compound | EC50 (hGIPR [1]; read-out: cAMP Rel EC50, hGIPR) [nM] | EC50 (hGLP-1R [2]; [5]) [nM] | EC50 (human GcgR; read-out: cAMP Rel EC50, hGcgR) [nM] | EC50 (hGIPR [3]; [6]) [nM] | EC50 (hGLP-1R [4]; [7]) [nM] | EC50 (hGcgR; [8]) [nM] | EC50 (hGIPR [3]; [9]) [nM] | EC50 (hGLP-1R [4]; [10]) [nM] | EC50 (hGcgR; [11]) [nM] | EC50 (hGIPR [1]) [nM] | EC50 (hGLP-1R [2]) [nM] | EC50 (human GcgR) [nM] | EC50 (hGIPR [3]) [nM] | EC50 (hGLP-1R [4]) [nM] | EC50 (hGcgR) [nM]
1 | CC[C@H](C)[C@H](NC(=O)[C@H](Cc1ccccc1)NC(=O)[C@H](C)NC(=O)C(C)(C)NC(=O)[C@H](CCC(N)=O)NC(=O)[C@H](C)NC(=O)[C@H](CCCCNC(=O)COCCOCCNC(=O)CC[C@H](NC(=O)CCCCCCCCCCCCCCCCC(=O)O)C(=O)O)NC(=O)[C@H](CCCCN)NC(=O)[C@H](CC(=O)O)NC(=O)[C@H](CC(C)C)NC(=O)[C@](C)(CC(C)C)NC(=O)[C@@H](NC(=O)[C@H](CO)NC(=O)[C@H](Cc1ccncc1)NC(=O)[C@H](CC(=O)O)NC(=O)[C@H](CO)NC(=O)[C@@H](NC(=O)[C@](C)(Cc1ccccc1F)NC(=O)[C@@H](NC(=O)CNC(=O)[C@H](CCC(N)=O)NC(=O)C(C)(C)NC(=O)[C@@H](N)Cc1ccc(O)cc1)[C@@H](C)O)[C@@H](C)O)[C@@H](C)CC)C(=O)N[C@@H](CCC(=O)O)C(=O)N[C@@H](Cc1ccc(O)cc1)C(=O)N[C@@H](CC(C)C)C(=O)N[C@@H](CCC(=O)O)C(=O)N[C@@H](CCC(=O)O)C(=O)NCC(=O)NCC(=O)N1CCC[C@H]1C(=O)N[C@@H](CO)C(=O)N[C@@H](CO)C(=O)NCC(=O)N[C@@H](CCC(=O)O)C(=O)N1CCC[C@H]1C(=O)N1CCC[C@H]1C(=O)N1CCC[C@H]1C(=O)N[C@@H](CO)C(N)=O [Example 442] (H-Y[Aib]QGT[αMePhe(2-F)]TSD[4Pal]SI[αMeL]LDKK([AEEA-γGlu-C18 diacid])AQ[Aib]AFIEYLEEGGPSSGEPPPS-NH2; N-terminus assumed) | 1.81 | 23.9 | 342 | 0.0237 | 0.267 | 5.66 |  |  |  |  |  |  |  |  | 
2 | H-Y[Aib]QGTFTSDFS[Orn][αMeL]LDKK([AEEA-γGlu-C18 diacid])AQ[Aib]AFIEYLLE[Aib]GESSGAPPPSGS-NH2 [Example 240] | 10.4 | 396 | 521 |  |  |  | 0.214 | 3.62 | 2.02 |  |  |  |  |  | 
3 | H-Y[Aib]QGTFTSDFS[Orn][αMeL]LDKK([AEEA-γGlu-C18 diacid])AQ[Aib]AFIEWLLEGGSSSGAPPPGGT-NH2 [Example 272] | 36.3 | 486 | 1540 |  |  |  | 0.254 | 2.62 | 7.91 |  |  |  |  |  | 
4 | H-Y[Aib]QGTFTSD[4Pal]SR[αMeL]LDKK([γGlu-γGlu-C18 diacid])AQ[αMe4Pal]AFIEYLIAGGESSGAPPPSGSEE-NH2 [Example 965] | 23.2 | 194 | 430 |  |  |  | 0.13 | 1.39 | 3.35 |  |  |  |  |  | 
5 | H-Y[Aib]QGTFTSD[4Pal]S[Orn][αMeL]LD[Orn]K([γGlu-γGlu-C18 diacid])AQ[αMe4Pal]QFIE[αMeY]LLEGGPSSGAPPPSGSEE-NH2 [Example 975] |  |  |  |  |  |  |  |  |  | 30.1 | 1810 | 374 | 0.344 | 10.2 | 2.61
6 | H-Y[Aib]QGT[αMePhe(2-F)]TSD[4Pal][αMeS]I[αMeL]LD[Orn]K([AEEA-γGlu-C18 diacid])AQ[αMe4Pal]EFI[dE][αMeY]LIEGGPSSGAPPPSGE-NH2 [Example 1140] | 0.869 | 39.2 | 228 |  |  |  | 0.00821 | 0.323 | 1.56 |  |  |  |  |  | 
7 | CC[C@H](C)[C@H](NC(=O)[C@H](Cc1ccccc1)NC(=O)[C@H](C)NC(=O)C(C)(C)NC(=O)[C@H](CCC(N)=O)NC(=O)[C@H](C)NC(=O)[C@H](CCCCNC(=O)COCCOCCNC(=O)COCCOCCNC(=O)CC[C@H](NC(=O)CCCCCCCCCCCCCCCCC(=O)O)C(=O)O)NC(=O)[C@H](CCCCN)NC(=O)[C@H](CC(=O)O)NC(=O)[C@H](CC(C)C)NC(=O)[C@H](CC(C)C)NC(=O)[C@@H](NC(=O)[C@H](CO)NC(=O)[C@H](Cc1ccncc1)NC(=O)[C@H](CC(=O)O)NC(=O)[C@H](CO)NC(=O)[C@@H](NC(=O)[C@](C)(Cc1ccccc1)NC(=O)[C@@H](NC(=O)CNC(=O)[C@H](CCC(N)=O)NC(=O)C(C)(C)NC(=O)[C@@H](N)Cc1ccc(O)cc1)[C@@H](C)O)[C@@H](C)O)[C@@H](C)CC)C(=O)N[C@@H](CCC(=O)O)C(=O)N[C@@H](Cc1ccc(O)cc1)C(=O)N[C@@H](CC(C)C)C(=O)N[C@@H](CC(C)C)C(=O)N[C@@H](CCC(=O)O)C(=O)NCC(=O)NCC(=O)N1CCC[C@H]1C(=O)N[C@@H](CO)C(=O)N[C@@H](CO)C(=O)NCC(=O)N[C@@H](C)C(=O)N1CCC[C@H]1C(=O)N1CCC[C@H]1C(=O)N1CCC[C@H]1C(=O)N[C@@H](CO)C(N)=O [Example 418] (H-Y[Aib]QGT[αMeF]TSD[4Pal]SILLDKK([AEEA-AEEA-γGlu-C18 diacid])AQ[Aib]AFIEYLLEGGPSSGAPPPS-NH2; N-terminus assumed) | 6.02 | 36.6 | 627 | 0.0153 | 0.264 | 4.7 |  |  |  |  |  |  |  |  | 
8 | H-Y[Aib]QGT[αMePhe(2-F)]TSD[4Pal]SILLDKK([γGlu-γGlu-C18 diacid])AQ[Aib]AFIEYLEEGGPSSGAPPPSGGEE-NH2 [Example 612] | 7.58 | 126 | 640 | 0.087 | 1.21 | 7.13 |  |  |  |  |  |  |  |  | 
